From patent publication US11999727B2 (Tango Therapeutics, Inc., priority 2020, dated 2024) come the findings set out here.

The structures appear in SMILES notation.

Test [1] concerns HAP1 MTAP-intact cell line. The experiment in a line: SDMA in-cell western assay, HAP1 MTAP-intact. The test is classed as cell-based. The settings on record: Homo sapiens, HAP1, SDMA in-cell western, HAP1 MTAP-intact; read-out: MTAP HAP1 intact IC50. In outline:
(§1)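 MTAP-null vs endogenous-MTAP HAP1 isogenic cells; in-cell western SDMA readout; IC50 per line.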

Test [2] relates to HAP1 MTAP-deleted cell line. Briefly: SDMA in-cell western assay, HAP1 MTAP-deleted. The test is classed as cell-based. The settings on record: for IC50: Homo sapiens, HAP1, SDMA in-cell western, HAP1 MTAP-deleted, read-out: HAP 1 MTAP deleted IC50; for MTAP intact/deleted ratio: IC50 ratio HAP1 MTAP-intact / HAP1 MTAP-deleted, SDMA in-cell western. Summed up:
as §1

The target in test [3] is T1, PRMT5 (Homo sapiens, UniProt O14744).
T1 construct: purchased Viva (custom protein)
The experiment in a line: PRMT5 biochemical IC50 assay with SAM as cofactor. The settings on record: PRMT5, SAM as cofactor; read-out: SAM IC50.

In test [4] the target is T1, PRMT5. Briefly: PRMT5 biochemical IC50 assay with MTA as cofactor. Particulars: PRMT5, MTA as cofactor; read-out: MTA IC50.
In test [5] the target is T1, PRMT5. The experiment in a line: PRMT5 biochemical IC50 assay with no cofactor. The settings on record: PRMT5, no cofactor; read-out: No Cofactor/rel IC50. From the text: Table 1 indicates IC50 values (μM) against PRMT5 for exemplary compounds in the presence of SAM as cofactor, with no cofactor, and with MTA as cofactor, respectively (columns 4-6). […] Ki values can be calculated from the IC50 values as described in the Examples section. As detailed in the Examples section, for the assay performed in the presence of SAM, IC50=Ki×1.5 (Ki=IC50/1.5).

Test [6] concerns HAP1 MTAP-deleted cell line. The experiment in a line: Viability assay, MTAP-deleted cell line. The test is classed as cell-based. The settings on record: Homo sapiens, HAP1, viability assay, MTAP-deleted cell line; read-out: HAP1 MTAP deleted viability. An excerpt: Table 1 additionally indicates IC50 values in a viability assay for the MTAP-deleted cell line (column 10), indicating the effect of treatment with compound on cell survival.

T1 sequence (O14744 whole entry): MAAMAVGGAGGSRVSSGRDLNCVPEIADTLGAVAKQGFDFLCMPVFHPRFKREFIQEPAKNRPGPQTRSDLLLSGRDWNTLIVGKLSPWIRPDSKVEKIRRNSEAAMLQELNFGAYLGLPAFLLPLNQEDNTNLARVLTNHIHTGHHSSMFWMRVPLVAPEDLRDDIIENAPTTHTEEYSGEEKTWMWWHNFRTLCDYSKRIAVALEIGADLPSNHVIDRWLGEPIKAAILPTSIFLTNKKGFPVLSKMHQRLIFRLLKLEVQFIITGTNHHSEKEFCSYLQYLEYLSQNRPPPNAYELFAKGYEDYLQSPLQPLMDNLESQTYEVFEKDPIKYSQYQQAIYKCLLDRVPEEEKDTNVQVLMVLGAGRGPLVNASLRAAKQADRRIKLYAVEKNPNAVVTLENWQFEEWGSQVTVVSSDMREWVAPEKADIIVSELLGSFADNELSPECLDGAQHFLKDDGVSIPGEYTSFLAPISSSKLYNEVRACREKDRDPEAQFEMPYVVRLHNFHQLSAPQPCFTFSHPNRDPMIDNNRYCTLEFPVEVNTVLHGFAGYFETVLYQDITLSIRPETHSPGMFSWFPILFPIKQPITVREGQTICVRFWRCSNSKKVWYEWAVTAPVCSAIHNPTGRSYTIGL
T1 sequence (Q9BQA1 whole entry partner): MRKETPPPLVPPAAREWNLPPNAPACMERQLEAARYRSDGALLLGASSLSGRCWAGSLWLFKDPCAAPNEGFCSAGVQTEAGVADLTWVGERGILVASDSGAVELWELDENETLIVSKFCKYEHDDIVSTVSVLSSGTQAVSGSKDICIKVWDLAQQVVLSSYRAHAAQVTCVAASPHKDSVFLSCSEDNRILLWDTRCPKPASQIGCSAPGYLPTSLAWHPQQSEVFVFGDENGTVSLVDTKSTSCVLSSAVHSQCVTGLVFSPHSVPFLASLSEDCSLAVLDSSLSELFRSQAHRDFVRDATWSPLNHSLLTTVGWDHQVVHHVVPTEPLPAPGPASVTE

In the case of `Cc1cc(NC(=O)C(=O)N2C[C@H](C)CC[C@H]2c2cccc3[nH]cnc23)cnc1N` (single isomer, unassigned) [Compound 949], the IC50 in test [1] is greater than 1000 nM; in test [2], 100 to 1000 nM; at PRMT5 [3], 50 to 500 nM; on PRMT5 [4], less than 50 nM; on PRMT5 [5], 50 to 500 nM; in test [6], 1000 to 10000 nM. Also, in test [2], the MTAP intact/deleted ratio entry is “A (an IC50 ratio greater than or equal to 10 fold)”.
As for `COc1ncc(NC(=O)C(=O)N2C[C@H](C)CC[C@H]2c2cc3cn[nH]c3s2)cc1C(N)=O` (single isomer, unassigned) [Compound 950, 2-methoxy-5-(2-(5-methyl-2-(1H-thieno[2,3-c]pyrazol-5-yl)piperidin-1-yl)-2-oxoacetamido)nicotinamide], the IC50 in test [1] was greater than 1000 nM; in test [2], greater than 1000 nM; at PRMT5 [3] it was greater than 500 nM; at PRMT5 [4], greater than 500 nM; on PRMT5 [5] it was greater than 500 nM; in test [6] it was greater than 10000 nM. Also, in test [2], the MTAP intact/deleted ratio result was “B (an IC50 ratio greater than or equal to 3 fold but lower than 10 fold)”.
For `CCc1cc(NC(=O)C(=O)N2C[C@@H](C)CC[C@@H]2c2cc(Cl)cc(Cl)c2)cnc1N` (single isomer, unassigned) [Compound 951], the IC50 in test [1] was greater than 1000 nM; in test [2], less than 100 nM; at PRMT5 [3] it was 50 to 500 nM; on PRMT5 [4], less than 50 nM; on PRMT5 [5], less than 50 nM; in test [6], 1000 to 10000 nM. Also, the MTAP intact/deleted ratio entry in test [2] is given as “A (an IC50 ratio greater than or equal to 10 fold)”.
On to `COc1ncc(NC(=O)C(=O)N2C[C@H](C)CC[C@H]2c2cc3[nH]ncc3s2)cc1C(N)=O` (single isomer, unassigned) [Compound 952, 2-methoxy-5-(2-(5-methyl-2-(1H-thieno[3,2-c]pyrazol-5-yl)piperidin-1-yl)-2-oxoacetamido)nicotinamide], for which the IC50 was greater than 1000 nM in test [1]; greater than 1000 nM in test [2]; greater than 500 nM on PRMT5 [3]; greater than 500 nM on PRMT5 [4]; greater than 500 nM on PRMT5 [5]; greater than 10000 nM in test [6]. Further, in test [2], the MTAP intact/deleted ratio result is “B (an IC50 ratio greater than or equal to 3 fold but lower than 10 fold)”.
For `Cc1cc(NC(=O)C(=O)N2C[C@H](C)CC[C@H]2c2ccc3c(=O)[nH]ccc3c2)cnc1N` (single isomer, unassigned) [Compound 953], the IC50 in test [1] is greater than 1000 nM; in test [2] it was 100 to 1000 nM; at PRMT5 [3], greater than 500 nM; at PRMT5 [4] it was 50 to 500 nM; on PRMT5 [5], greater than 500 nM; in test [6], greater than 10000 nM. Besides, the MTAP intact/deleted ratio entry in test [2] is given as “A (an IC50 ratio greater than or equal to 10 fold)”.
Take `CCc1cc(NC(=O)C(=O)N2C[C@H](C)CC[C@H]2c2cc3[nH]ncc3s2)cnc1N` (single isomer, unassigned) [Compound 955]: the IC50 is 100 to 1000 nM in test [1]; less than 100 nM in test [2]; 50 to 500 nM on PRMT5 [3]; less than 50 nM on PRMT5 [4]; less than 50 nM on PRMT5 [5]; less than 1000 nM in test [6]. Further, the MTAP intact/deleted ratio entry in test [2] is on record as “A (an IC50 ratio greater than or equal to 10 fold)”.
For the compound `Cc1cc(NC(=O)C(=O)N2C[C@H](C)CC[C@H]2c2ccc3sc(C(F)(F)F)nc3c2)cnc1N` (single isomer, unassigned) [Compound 959], the IC50 in test [1] was greater than 1000 nM; in test [2], greater than 1000 nM; at PRMT5 [3], greater than 500 nM; at PRMT5 [4], greater than 500 nM; at PRMT5 [5], greater than 500 nM; in test [6], greater than 10000 nM. Besides, the MTAP intact/deleted ratio entry in test [2] is “B (an IC50 ratio greater than or equal to 3 fold but lower than 10 fold)”.
